From PubChem BioAssay (NCI)
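GI50: concentration for 50% inhibition of growth. TGI: concentration producing complete growth inhibition.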

Assays:
Experiment in all cases: NCI anticancer screen, dose series, 384-well format
786-0 renal = system: 786-0 renal
A498 renal = system: A498 renal
A549 NSCLC = system: A549 NSCLC
ACHN renal = system: ACHN renal
BT-549 breast = system: BT-549 breast
CAKI-1 renal = system: CAKI-1 renal
CCRF-CEM leukemia = system: CCRF-CEM leukemia
DU-145 prostate = system: DU-145 prostate
EKVX NSCLC = system: EKVX NSCLC
HCT-116 colon = system: HCT-116 colon
HCT-15 colon = system: HCT-15 colon
HL-60(TB) leukemia = system: HL-60(TB) leukemia
HOP-62 NSCLC = system: HOP-62 NSCLC
HOP-92 NSCLC = system: HOP-92 NSCLC
HS 578T breast = system: HS 578T breast
HT29 colon = system: HT29 colon
IGROV1 ovarian = system: IGROV1 ovarian
K-562 leukemia = system: K-562 leukemia
KM12 colon = system: KM12 colon
LOX IMVI melanoma = system: LOX IMVI melanoma
M14 melanoma = system: M14 melanoma
MALME-3M melanoma = system: MALME-3M melanoma
MCF7 breast = system: MCF7 breast
MDA-MB-231 breast = system: MDA-MB-231 breast
MDA-MB-435 melanoma = system: MDA-MB-435 melanoma
MDA-MB-468 breast = system: MDA-MB-468 breast
MOLT-4 leukemia = system: MOLT-4 leukemia
NCI-H226 lung = system: NCI-H226 lung
NCI-H23 lung = system: NCI-H23 lung
NCI-H322M lung = system: NCI-H322M lung
NCI-H522 lung = system: NCI-H522 lung
NCI/ADR-RES ovarian = system: NCI/ADR-RES ovarian
OVCAR-3 ovarian = system: OVCAR-3 ovarian
OVCAR-4 ovarian = system: OVCAR-4 ovarian
OVCAR-5 ovarian = system: OVCAR-5 ovarian
OVCAR-8 ovarian = system: OVCAR-8 ovarian
PC-3 prostate = system: PC-3 prostate
RPMI-8226 leukemia = system: RPMI-8226 leukemia
RXF 393 renal = system: RXF 393 renal
SF-268 CNS = system: SF-268 CNS
SF-295 CNS = system: SF-295 CNS
SF-539 CNS = system: SF-539 CNS
SK-MEL-2 melanoma = system: SK-MEL-2 melanoma
SK-MEL-28 melanoma = system: SK-MEL-28 melanoma
SK-OV-3 ovarian = system: SK-OV-3 ovarian
SN12C renal = system: SN12C renal
SNB-19 CNS = system: SNB-19 CNS
SNB-75 CNS = system: SNB-75 CNS
SW-620 colon = system: SW-620 colon
T-47D breast = system: T-47D breast
TK-10 renal = system: TK-10 renal
U251 glioblastoma = system: U251 glioblastoma
UACC-257 melanoma = system: UACC-257 melanoma
UACC-62 melanoma = system: UACC-62 melanoma
UO-31 renal = system: UO-31 renal

`C1CN1c1nc(N2CC2)nc(N2CC2)n1` gave a GI50 ([…]-0 renal) of 2.59 µM, a TGI (786-0 renal) of 11.9 µM and a GI50 (A498 renal) of 3.36 µM. The TGI (A498 renal) was 18.6 µM, the GI50 (A549 NSCLC) was 3.42 µM and the TGI (A549 NSCLC) was 19.5 µM. The GI50 (ACHN renal) was 1.55 µM, the TGI (ACHN renal) was 4.03 µM and the GI50 (BT-549 breast) was 2.16 µM. For the same compound, the TGI (BT-549 breast) was 11.5 µM, the GI50 (CAKI-1 renal) was 1.46 µM and the TGI (CAKI-1 renal) was 14.2 µM. The GI50 (CCRF-CEM leukemia) was 0.449 µM, the TGI (CCRF-CEM leukemia) was 1.35 µM and the GI50 (DU-145 prostate) was 1.04 µM. For the same compound, the TGI (DU-145 prostate) was 5.94 µM, the GI50 (EKVX NSCLC) was 15.5 µM and the TGI (EKVX NSCLC) was 31 µM. For the same compound, the GI50 (HCT-116 colon) was 1.61 µM, the TGI (HCT-116 colon) was 16.6 µM and the GI50 (HCT-15 colon) was 2.34 µM. For the same compound, the TGI (HCT-15 colon) was 14.1 µM, the GI50 (HL-60(TB) leukemia) was 0.144 µM and the TGI (HL-60(TB) leukemia) was 0.3 µM. The GI50 (HOP-62 NSCLC) was 0.589 µM, the TGI (HOP-62 NSCLC) was 2.75 µM and the GI50 (HOP-92 NSCLC) was 6.61 µM. The TGI (HOP-92 NSCLC) was 58.6 µM, the GI50 (HS 578T breast) was 11.6 µM and the TGI (HS 578T breast) was 24 µM. For the same compound, the GI50 (HT29 colon) was 2.75 µM, the TGI (HT29 colon) was 15.3 µM and the GI50 (IGROV1 ovarian) was 10.8 µM. The TGI (IGROV1 ovarian) was 22.9 µM, the GI50 (K-562 leukemia) was 3.96 µM and the TGI (K-562 leukemia) was 17.4 µM. The GI50 (KM12 colon) was 2.47 µM, the TGI (KM12 colon) was 54.9 µM and the GI50 (LOX IMVI melanoma) was 2.25 µM. The TGI (LOX IMVI melanoma) was 14.8 µM, the GI50 (M14 melanoma) was 1.74 µM and the TGI (M14 melanoma) was 10.5 µM. For the same compound, the GI50 (MALME-3M melanoma) was 4.87 µM, the TGI (MALME-3M melanoma) was 18.6 µM and the GI50 (MCF7 breast) was 1.51 µM. It also gave a TGI (MCF7 breast) of 18 µM, a GI50 (MDA-MB-231 breast) of 11.7 µM and a TGI (MDA-MB-231 breast) of 25.2 µM. For the same compound, the GI50 (MDA-MB-435 melanoma) was 10.8 µM, the TGI (MDA-MB-435 melanoma) was 23.1 µM and the GI50 (MDA-MB-468 breast) was 0.139 µM. It also gave a TGI (MDA-MB-468 breast) of 0.586 µM, a GI50 (MOLT-4 leukemia) of 0.0877 µM and a TGI (MOLT-4 leukemia) of 0.21 µM. The GI50 (NCI-H226 lung) was 4.42 µM, the TGI (NCI-H226 lung) was 19.9 µM and the GI50 (NCI-H23 lung) was 1.22 µM. For the same compound, the TGI (NCI-H23 lung) was 4.3 µM, the GI50 (NCI-H322M lung) was 13.3 µM and the TGI (NCI-H322M lung) was 27.9 µM. The GI50 (NCI-H522 lung) was 1.36 µM, the TGI (NCI-H522 lung) was 2.87 µM and the GI50 (NCI/ADR-RES ovarian) was 3.02 µM. It also gave a TGI (NCI/ADR-RES ovarian) of 15.1 µM, a GI50 (OVCAR-3 ovarian) of 3.13 µM and a TGI (OVCAR-3 ovarian) of 14.5 µM. For the same compound, the GI50 (OVCAR-4 ovarian) was 14.7 µM, the TGI (OVCAR-4 ovarian) was 29 µM and the GI50 (OVCAR-5 ovarian) was 5.96 µM. For the same compound, the TGI (OVCAR-5 ovarian) was 22 µM, the GI50 (OVCAR-8 ovarian) was 1.39 µM and the TGI (OVCAR-8 ovarian) was 15.9 µM. It also gave a GI50 (PC-3 prostate) of 10.7 µM, a TGI (PC-3 prostate) of 23.4 µM and a GI50 (RPMI-8226 leukemia) of 0.736 µM. The TGI (RPMI-8226 leukemia) was 3.11 µM, the GI50 (RXF 393 renal) was 3.11 µM and the TGI (RXF 393 renal) was 13.1 µM. It also gave a GI50 (SF-268 CNS) of 0.68 µM, a TGI (SF-268 CNS) of 10.2 µM and a GI50 (SF-295 CNS) of 1.08 µM. It also gave a TGI (SF-295 CNS) of 2.84 µM, a GI50 (SF-539 CNS) of 1.46 µM and a TGI (SF-539 CNS) of 4.3 µM. It also gave a GI50 (SK-MEL-2 melanoma) of 8.35 µM, a TGI (SK-MEL-2 melanoma) of 18.8 µM and a GI50 (SK-MEL-28 melanoma) of 10.3 µM. For the same compound, the TGI (SK-MEL-28 melanoma) was 22.1 µM, the GI50 (SK-OV-3 ovarian) was 2.76 µM and the TGI (SK-OV-3 ovarian) was 12.2 µM. It also gave a GI50 (SN12C renal) of 1.21 µM, a TGI (SN12C renal) of 10.3 µM and a GI50 (SNB-19 CNS) of 3.73 µM. The TGI (SNB-19 CNS) was 18.1 µM, the GI50 (SNB-75 CNS) was 1.67 µM and the TGI (SNB-75 CNS) was 10.3 µM. For the same compound, the GI50 (SW-620 colon) was 2.84 µM, the TGI (SW-620 colon) was 20 µM and the GI50 (T-47D breast) was 5.49 µM. It also gave a TGI (T-47D breast) of 22.7 µM, a GI50 (TK-10 renal) of 14.3 µM and a TGI (TK-10 renal) of 35 µM. For the same compound, the GI50 (U251 glioblastoma) was 1.42 µM, the TGI (U251 glioblastoma) was 13.3 µM and the GI50 (UACC-257 melanoma) was 12.5 µM. The TGI (UACC-257 melanoma) was 25.2 µM, the GI50 (UACC-62 melanoma) was 1.34 µM and the TGI (UACC-62 melanoma) was 11.6 µM. The GI50 (UO-31 renal) was 5.17 µM and the TGI (UO-31 renal) was 17.9 µM.
